Columns and labels:
morningglory = assay: Test B pre/postemergence morningglory; assay type: in vivo, Ipomoea hederacea
Procedure, shortened: (§1)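 Herbicidal effect was estimated by eye on a ten-point control scale after plants spent twelve to sixteen days in a greenhouse following soil or foliar treatment. Foliar sprays targeted plants at one to four leaves; all doses were formulated in a non-phytotoxic solvent with surfactant.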

rice = assay: Test B flood test rice; assay type: in vivo, Oryza sativa
Procedure, shortened: (§2)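 Each value is a visual injury score relative to controls, with 10 meaning complete control and 0 no effect. Evaluation took place twelve to sixteen days after the 2-leaf-stage plants were treated and kept in the greenhouse.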

pigweed = assay: Test B pre/postemergence pigweed; assay type: in vivo, Amaranthus retroflexus
Procedure, shortened: as §1

bamyardgrass = assay: Test B flood test barnyardgrass; assay type: in vivo, Echinochloa crus-galli
Procedure, shortened: as §2

rape = assay: Test B pre/postemergence rape; assay type: in vivo, Brassica napus
Procedure, shortened: as §1

velvetleaf = assay: Test B pre/postemergence velvetleaf; assay type: in vivo, Abutilon theophrasti
Procedure, shortened: as §1

giant foxtail = assay: Test B pre/postemergence giant foxtail; assay type: in vivo, Setaria faberii
Procedure, shortened: as §1

wild oat = assay: Test B pre/postemergence wild oat; assay type: in vivo, Avena fatua
Procedure, shortened: as §1

blackgrass = assay: Test B pre/postemergence blackgrass; assay type: in vivo, Alopecurus myosuroides
Procedure, shortened: as §1

smallflower flatsedge = assay: Test B flood test smallflower flatsedge; assay type: in vivo, Cyperus difformis
Procedure, shortened: as §2

soybean = assay: Test B pre/postemergence soybean; assay type: in vivo, Glycine max
Procedure, shortened: as §1

duck salad = assay: Test B flood test duck salad; assay type: in vivo, Heteranthera limosa
Procedure, shortened: as §2

purple nutsedge = assay: Test B pre/postemergence purple nutsedge; assay type: in vivo, Cyperus rotundus
Procedure, shortened: as §1

wheat = assay: Test B pre/postemergence wheat; assay type: in vivo, Triticum aestivum
Procedure, shortened: as §1

sugar beet = assay: Test B pre/postemergence sugar beet; assay type: in vivo, Beta vulgaris
Procedure, shortened: as §1

bedstraw = assay: Test B pre/postemergence bedstraw; assay type: in vivo, Galium aparine
Procedure, shortened: as §1

[1] = Preemergence, Rate 62 g/ha, scale of 0 to 10 where 0 is no effect and 10 is complete control
[2] = Preemergence, Rate 250 g/ha, scale of 0 to 10 where 0 is no effect and 10 is complete control
[3] = Preemergence, Rate 500 g/ha, scale of 0 to 10 where 0 is no effect and 10 is complete control
[4] = Rate 62 g/ha, Postemergence, scale of 0 to 10 where 0 is no effect and 10 is complete control
[5] = Rate 125 g/ha, Postemergence, scale 0 to 10
[6] = Rate 125 g/ha, Preemergence, scale of 0 to 10 where 0 is no effect and 10 is complete control
[7] = Rate 500 g/ha, Postemergence, scale 0 to 10
[8] = Rate 62 g/ha, headed Pre-emergence (flood test species), scale 0 to 10 (0 no effect, 10 complete control)
[9] = Rate 125 g/ha, Pre-emergence, flood test species, scale 0 to 10 where 0 is no effect and 10 is complete control
[10] = Rate 250 g/ha, Pre-emergence, flood-test species, scale 0 to 10, 0 is no effect, 10 is complete control
[11] = Rate 500 g/ha, Pre-emergence, flood test species, scale 0 to 10 (0 no effect, 10 complete control)

CC(C)N(C(=O)n1oc(=O)n(CC(=O)C(C)(C)C)c1=O)c1ccc(F)cc1 [Compound 216]
9: Plant response rating, Giant foxtail (giant foxtail; [3])
10: Morningglory plant response rating (morningglory; [7])
0: Morningglory plant response rating (morningglory; [1]) | Morningglory plant response rating (morningglory; [2]) | Plant response rating, Morningglory (morningglory; [3]) | Morningglory plant response rating (morningglory; [6]) | Rice plant response rating (rice; [8]) | Rice plant response rating (rice; [9]) | Rice plant response rating (rice; [10]) | Rice plant response rating (rice; [11]) | Redroot pigweed plant response rating (pigweed; [1]) | Redroot pigweed plant response rating (pigweed; [4]) | Redroot pigweed plant response rating (pigweed; [5]) | Redroot pigweed plant response rating (pigweed; [6]) | Barnyardgrass plant response rating (bamyardgrass; [8]) | Barnyardgrass plant response rating (bamyardgrass; [9]) | Barnyardgrass plant response rating (bamyardgrass; [10]) | Barnyardgrass plant response rating (bamyardgrass; [11]) | Rape plant response rating (rape; [1]) | Rape plant response rating (rape; [2]) | Plant response rating, Rape (rape; [3]) | Rape plant response rating (rape; [4]) | Rape plant response rating (rape; [5]) | Rape plant response rating (rape; [6]) | Plant response rating (0 to 10; 0 is no effect, 10 is complete control), Rape (rape; Rate 250 g/ha, Postemergence) | Velvetleaf plant response rating (velvetleaf; [1]) | Velvetleaf plant response rating (velvetleaf; [2]) | Plant response rating, Velvetleaf (velvetleaf; [3]) | Velvetleaf plant response rating (velvetleaf; [4]) | Velvetleaf plant response rating (velvetleaf; [5]) | Velvetleaf plant response rating (velvetleaf; [6]) | Plant response rating (0 to 10; 0 is no effect, 10 is complete control), Velvetleaf (velvetleaf; Rate 250 g/ha, Postemergence) | Giant foxtail plant response rating (giant foxtail; [1]) | Giant foxtail plant response rating (giant foxtail; [4]) | Wild oats plant response rating (wild oat; [1]) | Wild oats plant response rating (wild oat; [2]) | Plant response rating, Wild oats (wild oat; [3]) | Wild oats plant response rating (wild oat; [4]) | Wild oats plant response rating (wild oat; [5]) | Wild oats plant response rating (wild oat; [6]) | Plant response rating (0 to 10; 0 is no effect, 10 is complete control), Wild oats (wild oat; Rate 250 g/ha, Postemergence) | Blackgrass plant response rating (blackgrass; [1]) | Blackgrass plant response rating (blackgrass; [4]) | S. Flatsedge plant response rating (smallflower flatsedge; [8]) | S. Flatsedge plant response rating (smallflower flatsedge; [9]) | S. Flatsedge plant response rating (smallflower flatsedge; [10]) | S. Flatsedge plant response rating (smallflower flatsedge; [11]) | Soybean plant response rating (soybean; [1]) | Soybean plant response rating (soybean; [2]) | Plant response rating, Soybean (soybean; [3]) | Soybean plant response rating (soybean; [6]) | Ducksalad plant response rating (duck salad; [8]) | Ducksalad plant response rating (duck salad; [9]) | Ducksalad plant response rating (duck salad; [10]) | Ducksalad plant response rating (duck salad; [11]) | Nutsedge plant response rating (purple nutsedge; [1]) | Nutsedge plant response rating (purple nutsedge; [2]) | Plant response rating, Nutsedge (purple nutsedge; [3]) | Nutsedge plant response rating (purple nutsedge; [4]) | Nutsedge plant response rating (purple nutsedge; [5]) | Nutsedge plant response rating (purple nutsedge; [6]) | Plant response rating (0 to 10; 0 is no effect, 10 is complete control), Nutsedge (purple nutsedge; Rate 250 g/ha, Postemergence) | Nutsedge plant response rating (purple nutsedge; [7]) | Wheat plant response rating (wheat; [1]) | Wheat plant response rating (wheat; [2]) | Plant response rating, Wheat (wheat; [3]) | Wheat plant response rating (wheat; [4]) | Wheat plant response rating (wheat; [5]) | Wheat plant response rating (wheat; [6]) | Plant response rating (0 to 10; 0 is no effect, 10 is complete control), Wheat (wheat; Rate 250 g/ha, Postemergence) | Sugarbeets plant response rating (sugar beet; [1]) | Sugarbeets plant response rating (sugar beet; [2]) | Plant response rating, Sugarbeets (sugar beet; [3]) | Sugarbeets plant response rating (sugar beet; [4]) | Sugarbeets plant response rating (sugar beet; [5]) | Sugarbeets plant response rating (sugar beet; [6]) | Plant response rating (0 to 10; 0 is no effect, 10 is complete control), Sugarbeets (sugar beet; Rate 250 g/ha, Postemergence) | Bedstraw plant response rating (bedstraw; [1]) | Bedstraw plant response rating (bedstraw; [2]) | Plant response rating, Bedstraw (bedstraw; [3]) | Bedstraw plant response rating (bedstraw; [4]) | Bedstraw plant response rating (bedstraw; [5]) | Bedstraw plant response rating (bedstraw; [6])
4: Morningglory plant response rating (morningglory; [5]) | Plant response rating (0 to 10; 0 is no effect, 10 is complete control), Giant foxtail (giant foxtail; Rate 250 g/ha, Postemergence) | Blackgrass plant response rating (blackgrass; [2]) | Plant response rating, Blackgrass (blackgrass; [3]) | Blackgrass plant response rating (blackgrass; [5])
6: Giant foxtail plant response rating (giant foxtail; [6]) | Giant foxtail plant response rating (giant foxtail; [7])
8: Plant response rating, Redroot pigweed (pigweed; [3]) | Plant response rating (0 to 10; 0 is no effect, 10 is complete control), Blackgrass (blackgrass; Rate 250 g/ha, Postemergence) | Blackgrass plant response rating (blackgrass; [7])
1: Soybean plant response rating (soybean; [4]) | Soybean plant response rating (soybean; [5]) | Plant response rating (0 to 10; 0 is no effect, 10 is complete control), Soybean (soybean; Rate 250 g/ha, Postemergence)
2: Redroot pigweed plant response rating (pigweed; [2]) | Plant response rating (0 to 10; 0 is no effect, 10 is complete control), Redroot pigweed (pigweed; Rate 250 g/ha, Postemergence) | Giant foxtail plant response rating (giant foxtail; [5]) | Blackgrass plant response rating (blackgrass; [6]) | Soybean plant response rating (soybean; [7]) | Sugarbeets plant response rating (sugar beet; [7]) | Plant response rating (0 to 10; 0 is no effect, 10 is complete control), Bedstraw (bedstraw; Rate 250 g/ha, Postemergence)
3: Morningglory plant response rating (morningglory; [4]) | Redroot pigweed plant response rating (pigweed; [7]) | Rape plant response rating (rape; [7])
7: Plant response rating (0 to 10; 0 is no effect, 10 is complete control), Morningglory (morningglory; Rate 250 g/ha, Postemergence) | Giant foxtail plant response rating (giant foxtail; [2])

Reference: patent US6737383B1, “Herbicidal oxadiazolidines” (priority 1999, dated 2004)
